Results as given in patent publication US20140005163A1 (NOVARTIS AG, priority 2010, published 2014).

Legend:
[1] = system: PKB Ser473 phosphorylation in Rat1-myr-HA-p110 delta cells; test: Reverse protein array assay, PKB Ser473 phosphorylation in Rat1-myr-p110 delta cells; assay type: cell-based; conditions: read-out: p-PKB IC50
How it was run: (§1)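 Measured: PKB Ser473 phosphorylation by reverse protein array in Rat1 cells expressing myr-HA-p110 alpha, beta or delta, after 30 min compound treatment at 37 °C with 0.2% DMSO vehicle.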

[2] = system: PKB Ser473 phosphorylation in Rat1-myr-HA-p110 beta cells; test: Reverse protein array assay, PKB Ser473 phosphorylation in Rat1-myr-p110 beta cells; assay type: cell-based; conditions: 0.5 h, pAkt Ser473, 30 minutes incubation, read-out: p-PKB IC50
How it was run: as §1

PI3K delta = molecular target: T1, PI3K delta (Homo sapiens, UniProt O00329); test: PI3K delta kinase assay (Kinase-Glo luminescence); assay type: biochemical
T1 construct: for the full-length p110-d subunit are generated and fused by overlapping PCR; p85(iSH2) fusion partner (see partner chain) (N); His tag (C); made in house; host or cells: baculovirus; Tn5 (Trichoplusia ni) or TiniPro insect cells
How it was run: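 Kinase-Glo luminescence read-out of ATP remaining after 60 min at RT. Enzyme: 10 nM BV1060 (p85 iSH2–p110δ fusion, His-tagged); substrate 10 μg/mL PI, ATP 1 μM final; Tris pH 7.5 buffer with MgCl2, NaCl, CHAPS, DTT. IC50 from 4-parameter logistic fit over 8 concentrations.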

T1 sequence (O00329 with tags, fused parts or gaps limits assumed): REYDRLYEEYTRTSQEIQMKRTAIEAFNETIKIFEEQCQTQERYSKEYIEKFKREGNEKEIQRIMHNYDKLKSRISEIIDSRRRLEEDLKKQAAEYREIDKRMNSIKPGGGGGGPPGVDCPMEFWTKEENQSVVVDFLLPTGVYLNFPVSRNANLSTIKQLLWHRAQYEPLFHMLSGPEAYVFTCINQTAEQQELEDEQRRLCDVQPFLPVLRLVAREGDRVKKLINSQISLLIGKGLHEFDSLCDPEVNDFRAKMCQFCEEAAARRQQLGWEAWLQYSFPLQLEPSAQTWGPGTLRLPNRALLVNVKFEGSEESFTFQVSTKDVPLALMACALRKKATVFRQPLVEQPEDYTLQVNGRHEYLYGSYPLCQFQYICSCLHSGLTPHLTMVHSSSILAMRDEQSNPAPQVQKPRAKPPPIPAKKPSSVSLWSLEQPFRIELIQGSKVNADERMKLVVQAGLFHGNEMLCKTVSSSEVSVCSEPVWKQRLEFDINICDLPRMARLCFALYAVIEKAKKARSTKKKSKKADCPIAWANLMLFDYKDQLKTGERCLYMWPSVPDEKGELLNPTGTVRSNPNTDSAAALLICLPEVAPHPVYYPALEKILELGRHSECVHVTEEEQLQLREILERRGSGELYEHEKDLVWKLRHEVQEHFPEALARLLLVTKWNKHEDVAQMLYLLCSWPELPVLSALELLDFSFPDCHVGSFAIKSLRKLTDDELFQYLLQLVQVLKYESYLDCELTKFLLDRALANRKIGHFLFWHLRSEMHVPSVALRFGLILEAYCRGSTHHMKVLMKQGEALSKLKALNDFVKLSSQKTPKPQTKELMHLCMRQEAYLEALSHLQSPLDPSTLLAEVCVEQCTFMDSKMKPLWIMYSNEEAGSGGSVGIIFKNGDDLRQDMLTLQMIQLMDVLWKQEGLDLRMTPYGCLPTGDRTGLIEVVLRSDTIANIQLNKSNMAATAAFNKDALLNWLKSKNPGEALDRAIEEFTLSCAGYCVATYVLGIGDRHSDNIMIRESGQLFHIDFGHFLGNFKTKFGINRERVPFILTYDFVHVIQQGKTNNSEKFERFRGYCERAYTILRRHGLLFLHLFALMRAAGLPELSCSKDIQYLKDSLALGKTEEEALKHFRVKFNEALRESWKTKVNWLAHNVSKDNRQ

SMILES	IC50 [1]	IC50 [2]	IC50 (PI3K delta)
Cc1nn(C)cc1-n1c(=O)n(C)c2cnc3ccc(-c4cnc(Cl)c(N)c4)cc3c21 [Example 152.2, 8-(5-Amino-6-chloro-pyridin-3-yl)-1-(1,3-dimethyl-1H-pyrazol-4-yl)-3-methyl-1,3-dihydro-imidazo[4,5-c]quinolin-2-one]	33 nM	10 nM	28 nM
CCNc1cc(-c2ccc3ncc4c(c3c2)n(-c2cn(C)nc2C)c(=O)n4C)cnc1COC [Example 156, 1-(1,3-Dimethyl-1H-pyrazol-4-yl)-8-(5-ethylamino-6-methoxymethyl-pyridin-3-yl)-3-methyl-1,3-dihydro-imidazo[4,5-c]quinolin-2-one]	12 nM	5 nM	17 nM
CNc1cc(-c2ccc3ncc4c(c3c2)n(-c2cn(C)nc2C)c(=O)n4C)cnc1CO [Example 158.1, 1-(1,3-Dimethyl-1H-pyrazol-4-yl)-8-(6-hydroxymethyl-5-methylamino-pyridin-3-yl)-3-methyl-1,3-dihydro-imidazo[4,5-c]quinolin-2-one]	45 nM	17 nM	15 nM
CNc1cc(-c2ccc3ncc4c(c3c2)n(-c2c(C)nn(C)c2C)c(=O)n4C)cnc1CO [Example 158.4, 8-(6-Hydroxymethyl-5-methylamino-pyridin-3-yl)-3-methyl-1-(1,3,5-trimethyl-1H-pyrazol-4-yl)-1,3-dihydro-imidazo[4,5-c]quinolin-2-one]	95 nM	88 nM	11 nM
CNc1cc(-c2ccc3ncc4c(c3c2)n(-c2cn(C)nc2Cl)c(=O)n4C)cnc1COC [Example 160.1, 1-(3-Chloro-1-methyl-1H-pyrazol-4-yl)-8-(6-methoxymethyl-5-methylamino-pyridin-3-yl)-3-methyl-1,3-dihydro-imidazo[4,5-c]quinolin-2-one]	10 nM	< 5 nM	< 3 nM
CCOCc1cc(-c2ccc3ncc4c(c3c2)n(-c2cn(CC)nc2C)c(=O)n4C)cnc1N [Example 166.2, 8-(6-Amino-5-ethoxymethyl-pyridin-3-yl)-1-(1-ethyl-3-methyl-1H-pyrazol-4-yl)-3-methyl-1,3-dihydro-imidazo[4,5-c]quinolin-2-one]	50 nM	86 nM	7 nM
COCc1cc(-c2ccc3ncc4c(c3c2)n(-c2cn(C(C)C)nc2C)c(=O)n4C)cnc1N [Example 168.1, 8-(6-Amino-5-methoxymethyl-pyridin-3-yl)-1-(1-isopropyl-3-methyl-1H-pyrazol-4-yl)-3-methyl-1,3-dihydro-imidazo[4,5-c]quinolin-2-one]	50 nM	25 nM	5 nM
CNc1ncc(-c2ccc3ncc4c(c3c2)n(-c2cn(C(C)C)nc2C)c(=O)n4C)cc1CO [Example 171, 8-(5-Hydroxymethyl-6-methylamino-pyridin-3-yl)-1-(1-isopropyl-3-methyl-1H-pyrazol-4-yl)-3-methyl-1,3-dihydro-imidazo[4,5-c]quinolin-2-one]	41 nM	< 5 nM	14 nM
Cc1cc(-n2c(=O)n(C)c3cnc4ccc(-c5cncc(N6CCOCC6)c5)cc4c32)n(C)n1 [Example 175.2, 1-(2,5-Dimethyl-2H-pyrazol-3-yl)-3-methyl-8-(5-morpholin-4-yl-pyridin-3-yl)-1,3-dihydro-imidazo[4,5-c]quinolin-2-one]	360 nM	161 nM	235 nM
Cc1nn(C)cc1-n1c(=O)n(C)c2cnc3ccc(-c4cncc(NC(C)C)c4)cc3c21 [Example 177.1, 1-(1,3-Dimethyl-1H-pyrazol-4-yl)-8-(5-isopropylamino-pyridin-3-yl)-3-methyl-1,3-dihydro-imidazo[4,5-c]quinolin-2-one]	39 nM	16 nM	12 nM
CCn1cc(-n2c(=O)n(C)c3cnc4ccc(-c5cncc(NC)c5)cc4c32)c(C)n1 [Example 180.1, 1-(1-Ethyl-3-methyl-1H-pyrazol-4-yl)-3-methyl-8-(5-methylamino-pyridin-3-yl)-1,3-dihydro-imidazo[4,5-c]quinolin-2-one]	41 nM	< 5 nM	20 nM
Cc1nn(C)cc1-n1c(=O)n(C)c2cnc3ccc(-c4cncc(OCCF)c4)cc3c21 [Example 181, 1-(1,3-Dimethyl-1H-pyrazol-4-yl)-8-[5-(2-fluoro-ethoxy)-pyridin-3-yl]-3-methyl-1,3-dihydro-imidazo[4,5-c]quinolin-2-one]	62 nM	54 nM	24 nM
Cc1nn(C)cc1-n1c(=O)n(C)c2cnc3ccc(-c4cncc(OC(CF)CF)c4)cc3c21 [Example 182, 1-(1,3-Dimethyl-1H-pyrazol-4-yl)-8-[5-(2-fluoro-1-fluoromethyl-ethoxy)-pyridin-3-yl]-3-methyl-1,3-dihydro-imidazo[4,5-c]quinolin-2-one]	56 nM	18 nM	8 nM
COc1cc(-c2ccc3ncc4c(c3c2)n(-c2cn(C(C)C)nc2C)c(=O)n4C)cnc1CO [Example 194.1, 8-(6-Hydroxymethyl-5-methoxy-pyridin-3-yl)-1-(1-isopropyl-3-methyl-1H-pyrazol-4-yl)-3-methyl-1,3-dihydro-imidazo[4,5-c]quinolin-2-one]	145 nM	81 nM	15 nM
COc1cc(-c2ccc3ncc4c(c3c2)n(-c2cn(C)nc2Cl)c(=O)n4C)cnc1CO [Example 194.2, 1-(3-chloro-1-methyl-1H-pyrazol-4-yl)-8-(6-hydroxymethyl-5-methoxy-pyridin-3-yl)-3-methyl-1,3-dihydro-imidazo[4,5-c]quinolin-2-one]	27 nM	10 nM	< 3 nM
CCOCc1ncc(-c2ccc3ncc4c(c3c2)n(-c2cn(C)nc2Cl)c(=O)n4C)cc1OC [Example 196.1, 1-(3-Chloro-1-methyl-1H-pyrazol-4-yl)-8-(6-ethoxymethyl-5-methoxy-pyridin-3-yl)-3-methyl-1,3-dihydro-imidazo[4,5-c]quinolin-2-one]	58 nM	103 nM	5 nM

The next lines start with the values.

IC50 [1]	IC50 [2]	IC50 (PI3K delta)	SMILES
7 nM	< 5 nM	10 nM	COc1ncc(-c2ccc3ncc4c(c3c2)n(-c2cn(C)nc2Cl)c(=O)n4C)cc1CO [Example 200, 1-(3-Chloro-1-methyl-1H-pyrazol-4-yl)-8-(5-hydroxymethyl-6-methoxy-pyridin-3-yl)-3-methyl-1,3-dihydro-imidazo[4,5-c]quinolin-2-one]
10 nM	19 nM	< 3 nM	COCc1cc(-c2ccc3ncc4c(c3c2)n(-c2cn(C)nc2Cl)c(=O)n4C)cnc1OC [Example 201, 1-(3-Chloro-1-methyl-1H-pyrazol-4-yl)-8-(6-methoxy-5-methoxymethyl-pyridin-3-yl)-3-methyl-1,3-dihydro-imidazo[4,5-c]quinolin-2-one]
211 nM	61 nM	14 nM	COc1cc(-c2ccc3ncc4c(c3c2)n(-c2cn(CCO)nc2C)c(=O)n4C)cnc1C [Example 211.1, 1-[1-(2-Hydroxy-ethyl)-3-methyl-1H-pyrazol-4-yl]-8-(5-methoxy-6-methyl-pyridin-3-yl)-3-methyl-1,3-dihydro-imidazo[4,5-c]quinolin-2-one]
297 nM	497 nM	13 nM	Cc1nn(C(C)C)cc1-n1c(=O)n(C)c2cnc3ccc(-c4cncc(C(O)(CF)CF)c4)cc3c21 [Example 219, 8-[5-(2-Fluoro-1-fluoromethyl-1-hydroxy-ethyl)-pyridin-3-yl]-1-(1-isopropyl-3-methyl-1H-pyrazol-4-yl)-3-methyl-1,3-dihydro-imidazo[4,5-c]quinolin-2-one]
56 nM	103 nM	6 nM	CCn1cc(-n2c(=O)n(C)c3cnc4ccc(-c5cncc(C6(C#N)CCC6)c5)cc4c32)c(C)n1 [Example 221.2, 1-{5-[1-(1-Ethyl-3-methyl-1H-pyrazol-4-yl)-3-methyl-2-oxo-2,3-dihydro-1H-imidazo[4,5-c]quinolin-8-yl]-pyridin-3-yl}-cyclobutanecarbonitrile]
68 nM	52 nM	82 nM	CC(=O)Nc1cc(-c2ccc3ncc4c(c3c2)n(-c2cn(C)nc2C)c(=O)n4C)cnc1Cl [Example 222, N-{2-Chloro-5-[1-(1,3-dimethyl-1H-pyrazol-4-yl)-3-methyl-2-oxo-2,3-dihydro-1H-imidazo[4,5-c]quinolin-8-yl]-pyridin-3-yl}-acetamide]
103 nM	24 nM	6 nM	Cc1nn(C)cc1-n1c(=O)n(C)c2cnc3ccc(-c4cnc(Cl)c(NS(C)(=O)=O)c4)cc3c21 [Example 223, N-{2-Chloro-5-[1-(1,3-dimethyl-1H-pyrazol-4-yl)-3-methyl-2-oxo-2,3-dihydro-1H-imidazo[4,5-c]quinolin-8-yl]-pyridin-3-yl}-methanesulfonamide]
69 nM	111 nM	26 nM	Cc1nn(C)cc1-n1c(=O)n(C)c2cnc3ccc(-c4cnc(N)c(C(=O)NC(C)C)c4)cc3c21 [Example 225, 2-Amino-5-[1-(1,3-dimethyl-1H-pyrazol-4-yl)-3-methyl-2-oxo-2,3-dihydro-1H-imidazo[4,5-c]quinolin-8-yl]-N-isopropyl-nicotinamide]
